Laboratory results published in ChEMBL document CHEMBL1129269, “1-aryl-4-[(1-tetralinyl)alkyl]piperazines: alkylamido and alkylamino derivatives. Synthesis, 5-HT1A receptor affinity, and selectivity. 3” (J Med Chem, 1996).

Experiments:
[1] = target: T1, Adrenergic receptor alpha-1 (Rattus norvegicus, UniProt P15823+P23944+P43140); assay: Binding affinity against Alpha-1 adrenergic receptor in rat brain membrane using [3H]prazosin as radioligand; assay type: cell membranes
T1 sequence (P15823 whole entry): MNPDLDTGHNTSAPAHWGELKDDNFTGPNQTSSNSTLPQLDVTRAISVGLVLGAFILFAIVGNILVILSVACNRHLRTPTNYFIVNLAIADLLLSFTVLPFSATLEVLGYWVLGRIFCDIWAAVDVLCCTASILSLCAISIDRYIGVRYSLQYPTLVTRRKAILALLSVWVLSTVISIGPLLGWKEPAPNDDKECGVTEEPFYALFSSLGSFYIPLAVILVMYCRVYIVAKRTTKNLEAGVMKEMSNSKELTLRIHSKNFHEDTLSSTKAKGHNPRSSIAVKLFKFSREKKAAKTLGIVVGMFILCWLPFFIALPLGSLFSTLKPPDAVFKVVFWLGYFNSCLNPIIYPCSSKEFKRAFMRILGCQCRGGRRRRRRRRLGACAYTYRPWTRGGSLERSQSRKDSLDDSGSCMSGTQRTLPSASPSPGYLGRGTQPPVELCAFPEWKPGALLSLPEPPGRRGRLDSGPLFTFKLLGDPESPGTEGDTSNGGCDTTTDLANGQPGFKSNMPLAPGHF
T1 sequence (P23944 whole entry): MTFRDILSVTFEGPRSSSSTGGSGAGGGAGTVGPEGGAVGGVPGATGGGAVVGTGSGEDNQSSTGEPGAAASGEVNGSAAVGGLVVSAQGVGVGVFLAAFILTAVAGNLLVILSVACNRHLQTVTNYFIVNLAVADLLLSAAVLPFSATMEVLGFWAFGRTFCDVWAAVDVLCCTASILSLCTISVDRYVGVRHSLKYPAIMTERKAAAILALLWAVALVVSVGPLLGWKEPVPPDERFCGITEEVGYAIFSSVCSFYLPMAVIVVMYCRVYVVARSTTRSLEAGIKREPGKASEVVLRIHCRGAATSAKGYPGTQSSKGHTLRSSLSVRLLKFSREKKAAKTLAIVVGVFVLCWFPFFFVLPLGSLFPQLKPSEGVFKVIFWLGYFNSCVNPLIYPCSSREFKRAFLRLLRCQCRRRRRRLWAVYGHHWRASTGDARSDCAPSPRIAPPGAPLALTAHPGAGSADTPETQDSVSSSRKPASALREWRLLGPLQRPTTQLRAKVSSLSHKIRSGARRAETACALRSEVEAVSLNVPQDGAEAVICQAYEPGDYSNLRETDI
T1 sequence (P43140 whole entry): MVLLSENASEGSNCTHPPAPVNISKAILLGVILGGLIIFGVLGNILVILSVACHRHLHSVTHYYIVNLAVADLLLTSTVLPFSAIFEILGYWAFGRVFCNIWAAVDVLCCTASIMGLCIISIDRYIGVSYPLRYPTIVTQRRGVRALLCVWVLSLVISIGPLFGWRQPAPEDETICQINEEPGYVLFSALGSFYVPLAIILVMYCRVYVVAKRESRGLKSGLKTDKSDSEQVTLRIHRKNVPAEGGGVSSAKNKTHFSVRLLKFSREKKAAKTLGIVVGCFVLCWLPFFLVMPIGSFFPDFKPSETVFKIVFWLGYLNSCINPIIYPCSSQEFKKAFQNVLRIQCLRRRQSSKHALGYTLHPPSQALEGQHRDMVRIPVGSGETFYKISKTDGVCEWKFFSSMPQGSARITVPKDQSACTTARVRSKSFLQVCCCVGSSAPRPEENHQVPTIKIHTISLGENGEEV

D(2) dopamine receptor [2] = target: T2, D(2) dopamine receptor (Rattus norvegicus, UniProt P61169); assay: Compound was evaluated for their affinity against Dopamine receptor D2 by displacing [3H]spiperone in rat striatal membrane; assay type: cell membranes, Striatum
[3] = target: T3, 5-hydroxytryptamine receptor 1A (Rattus norvegicus, UniProt P19327); assay: Binding affinity against 5-hydroxytryptamine 1A receptor in rat hippocampus membranes using [3H]8-OH-DPAT as radioligand; assay type: cell membranes, Membrane
T3 sequence (P19327 whole entry): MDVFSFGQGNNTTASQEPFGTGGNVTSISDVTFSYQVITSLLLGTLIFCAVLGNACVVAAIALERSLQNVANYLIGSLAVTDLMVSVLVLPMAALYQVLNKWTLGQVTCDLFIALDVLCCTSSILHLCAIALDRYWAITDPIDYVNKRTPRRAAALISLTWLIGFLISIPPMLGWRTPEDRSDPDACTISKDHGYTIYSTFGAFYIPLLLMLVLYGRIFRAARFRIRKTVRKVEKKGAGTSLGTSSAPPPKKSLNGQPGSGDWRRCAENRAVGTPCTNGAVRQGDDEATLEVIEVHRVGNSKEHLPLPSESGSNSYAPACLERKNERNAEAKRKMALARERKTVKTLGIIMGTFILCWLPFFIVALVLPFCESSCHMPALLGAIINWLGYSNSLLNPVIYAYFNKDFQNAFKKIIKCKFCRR

[4] = target: T4, Adrenergic receptor alpha-2 (Rattus norvegicus, UniProt P22086+P19328+P22909); assay: Binding affinity against Alpha-2 adrenergic receptor in rat brain membrane using [3H]yohimbine as radioligand; assay type: cell membranes
T4 sequence (P22086 whole entry): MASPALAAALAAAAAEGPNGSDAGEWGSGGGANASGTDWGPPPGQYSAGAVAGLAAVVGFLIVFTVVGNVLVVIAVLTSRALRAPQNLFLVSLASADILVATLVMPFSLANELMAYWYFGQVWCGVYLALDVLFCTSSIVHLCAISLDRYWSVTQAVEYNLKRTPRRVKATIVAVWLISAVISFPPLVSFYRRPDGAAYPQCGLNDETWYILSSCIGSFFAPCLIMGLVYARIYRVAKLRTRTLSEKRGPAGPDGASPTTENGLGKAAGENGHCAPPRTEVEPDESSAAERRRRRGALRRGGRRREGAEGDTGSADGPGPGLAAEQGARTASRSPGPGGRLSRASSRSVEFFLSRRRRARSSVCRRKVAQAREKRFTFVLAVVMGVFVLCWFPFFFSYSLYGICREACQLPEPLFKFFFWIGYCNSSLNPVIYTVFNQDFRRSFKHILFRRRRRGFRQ
T4 sequence (P19328 whole entry): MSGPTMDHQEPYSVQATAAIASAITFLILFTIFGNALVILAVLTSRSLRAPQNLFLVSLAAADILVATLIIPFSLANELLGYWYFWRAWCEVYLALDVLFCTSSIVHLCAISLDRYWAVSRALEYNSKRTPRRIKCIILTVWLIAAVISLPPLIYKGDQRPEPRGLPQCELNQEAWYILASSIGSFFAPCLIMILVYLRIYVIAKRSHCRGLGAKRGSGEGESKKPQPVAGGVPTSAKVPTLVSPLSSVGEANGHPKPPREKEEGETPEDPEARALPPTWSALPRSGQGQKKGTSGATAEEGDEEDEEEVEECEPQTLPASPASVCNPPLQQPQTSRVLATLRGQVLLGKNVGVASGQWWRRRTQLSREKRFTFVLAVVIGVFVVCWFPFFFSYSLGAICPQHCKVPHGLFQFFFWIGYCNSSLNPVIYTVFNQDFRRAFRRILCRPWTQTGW
T4 sequence (P22909 whole entry): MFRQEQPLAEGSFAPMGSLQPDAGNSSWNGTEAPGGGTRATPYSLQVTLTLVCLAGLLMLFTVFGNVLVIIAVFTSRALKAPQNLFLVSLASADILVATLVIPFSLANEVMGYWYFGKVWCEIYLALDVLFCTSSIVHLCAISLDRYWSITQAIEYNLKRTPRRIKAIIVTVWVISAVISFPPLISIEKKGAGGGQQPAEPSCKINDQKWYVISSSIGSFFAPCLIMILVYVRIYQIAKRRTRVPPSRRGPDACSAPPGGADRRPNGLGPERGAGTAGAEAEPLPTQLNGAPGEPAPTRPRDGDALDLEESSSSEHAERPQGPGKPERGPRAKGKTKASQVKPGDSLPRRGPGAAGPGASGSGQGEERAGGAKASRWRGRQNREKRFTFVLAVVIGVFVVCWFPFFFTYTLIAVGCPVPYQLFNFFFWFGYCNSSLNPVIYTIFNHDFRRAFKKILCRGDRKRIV

[5] = target: Serotonin 2 (5-HT2) receptor (Rattus norvegicus, UniProt P30994+P08909+P14842); assay: Binding affinity against 5-hydroxytryptamine 2 receptor in rat brain using [3H]ketanserin as radioligand; assay type: tissue-based
D(2) dopamine receptor [6] = target: T2, D(2) dopamine receptor; assay: biochemical
Description: Binding affinity to rat Dopamine receptor D2 expressed in CHO cells was determined using [125 I ] iodosulpride as radioligand

[7] = target: T3, 5-hydroxytryptamine receptor 1A; assay: Binding affinity against serotonin 5-hydroxytryptamine 1A receptor in rat hippocampus membrane using [3H]8-OH-DPAT as radioligand; assay type: cell membranes

T2 sequence (P61169 whole entry): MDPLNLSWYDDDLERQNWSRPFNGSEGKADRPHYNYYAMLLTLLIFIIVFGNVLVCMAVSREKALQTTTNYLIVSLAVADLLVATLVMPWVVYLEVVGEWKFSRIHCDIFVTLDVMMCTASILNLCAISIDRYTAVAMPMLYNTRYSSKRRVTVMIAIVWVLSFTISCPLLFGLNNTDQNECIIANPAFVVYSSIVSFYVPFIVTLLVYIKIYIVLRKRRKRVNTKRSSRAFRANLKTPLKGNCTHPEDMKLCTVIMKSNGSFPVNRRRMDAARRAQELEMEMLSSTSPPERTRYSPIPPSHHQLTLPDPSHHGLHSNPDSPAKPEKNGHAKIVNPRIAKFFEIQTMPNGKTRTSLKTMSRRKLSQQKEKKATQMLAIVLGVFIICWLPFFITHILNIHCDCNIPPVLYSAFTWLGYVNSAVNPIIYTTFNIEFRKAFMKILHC

Structure (SMILES): COc1ccccc1N1CCN(CCNC2CCCc3c(OC)cccc32)CC1 (stereo not drawn)
- IC50 [1]: 220 nM
- IC50 (D(2) dopamine receptor [2]): 380 nM
- IC50 [3]: 7.7 nM
- IC50 [4]: 280 nM
- IC50 [5]: 2580 nM

Structure (SMILES): COc1cccc2c1CCCC2CCCN1CCN(c2ccccc2)CC1 (stereo not drawn)
- IC50 [1]: 43 nM
- IC50 (D(2) dopamine receptor [6]): 110 nM
- IC50 [4]: 260 nM
- IC50 [7]: 0.5 nM
- IC50 [5]: 230 nM

Structure (SMILES): COc1cccc2c1CCCC2CCCN1CCN(c2ccccn2)CC1 (stereo not drawn)
- IC50 [1]: 66 nM
- IC50 (D(2) dopamine receptor [6]): 140 nM
- IC50 [4]: 48 nM
- IC50 [7]: 0.54 nM
- IC50 [5]: 250 nM

Structure (SMILES): CCCN(CCC)C1CCc2cccc(O)c2C1 (stereo not drawn) [8-OH-DPAT]
- IC50 (D(2) dopamine receptor [6]): 5.2 nM
- IC50 [4]: 810 nM
- IC50 [5]: > 10000 nM
